Laboratory results: patent US12187767B2 (priority 2021, dated 2025)
Entries after “also recorded” stand apart in the source; their conditions may differ. Like-named read-outs stand apart in the source and are kept apart here. Ends that are not written are not given here.

How the values were obtained:
MCF-7 cells [1] = assay: Acetylcholinesterase (AchE) assay of exosome/EV release; assay type: cell-based; details: for AchE concentrations on day 3 / AchE concentrations, initial increase: five-day treatment; for AchE concentrations on day 3: mock 69.15; for AchE concentrations, initial increase: initial increase on days 1 and/or 2, mock 155.13
Method: (§1) 1.3. EV isolation and purification. EVs were isolated from cells by differential centrifugation as previously described (Ali SA. et al., 2010). Untreated cells were used as a control. Briefly, the above treated and untreated cell culture supernatants were centrifuged at 400×g for 10 minutes. The supernatants were transferred to a clear tube and centrifuged at 10,000×g for 30 minutes. The supernatants from the second spin were […] ultracentrifuged at 200,000×g for 2 hours to pellet the EVs. Finally, the EV pellets were re-suspended with PBS and stored at 4° C. until used for analysis.
(§2) 1.4. Exosome characterization by acetylcholinesterase (AchE) assay. Purified EVs were quantitated by measurement of AchE as described (Ellman et al., 1961). Briefly, a 100 mM dithibionitrobenzoic (DTNB) solution was prepared for use as a stock color indicator, and a 28.9 mg/mL acetylthiocholine iodide in PBS solution was prepared as a stock substrate. The stock substrate stock can be stored at −20° C. up to one month, while the color indicator can be stored at 4° C. for two weeks. A working solution was prepared by mixing 10 mL of PBS with 200 μL of Substrate and 500 μl of DTNB. 50 μL of each exosome sample was transferred to 96 well microtitre plates, and a standard curve was prepared using AchE from 0.98 mU/mL to 2000 mU/mL. After 50 μL of standards were added into separate wells, 200 μL of the working solution was added to all wells. After 20 min incubation, AchE activity was measured at 450 nm using a SpectroMax M5 fluorimeter.

MDA-MB-231 cells [2] = assay: as above; assay type: cell-based; details: for AChE on day 1 (initial increase): five-day treatment, mock 146.52
Method: as §1, §2

[3] = test system: K562, MCF-7 and MDA-MB-231 cultures; assay: Complement-mediated cytotoxicity, overall statements across cell lines; assay type: cell-based; details: peptide, then anti-CXCR4 antibody and NHS
Method: (§3) Therefore, it was of interest to see whether SMR peptide driven mortalin sequestration and functional disruption increases cell sensitivity to complement-induced cell death. Accordingly, MCF-7, MDA-MB-231, and K562 cells were treated with 280 nM PEG-SMRwt-Clu peptide or 560 nM SMRwt-CPP peptide alone for 60 min at 37° C., followed by treatment with 1 μg/mL anti-CXCR4 antibody and 50 μL normal human serum (NHS; as a source of complement) or normal heat-inactivated (human) serum (NIS) for an additional 60 min at 37° C. (FIG. 8). PEG-SMRmut-Clu peptide and SMRmut-CPP peptide were used as negative controls. The percentage of stained (dead) cells was determined by trypan blue exclusion and is representative of 3 independent experiments.
(§4) To further validate the ability of mortalin neutralization to render or enhance complement-mediated cytotoxicity, MCF-7, MDA-MB-231 and K562 cells were transfected with vectors expressing mortalin siRNAs or negative control siRNAs, incubated for 72 hours at 37° C., treated with anti-CXCR4 antibody for 30 minutes at 4° C. followed by incubation with either NHS or NIS for 60 minutes at 37° C.

MCF-7 cells [4] = assay: NanoSight nanoparticle tracking analysis (NTA) of released EVs; assay type: cell-based; details: MCF-7 cells treated for 48 hr; untreated control 5.16×10^9 particles/ml
Method: as §1
(§5) 1.5. EV nanoparticle tracking analysis (NTA). Analysis of absolute size distribution of EVs was performed using NanoSight LM10 with NTA2.3 (NanoSight Ltd., Minton Park, UK). EV particles were automatically tracked and sized based on Brownian motion and the diffusion coefficient. After isolation, the untreated and treated EVs were re-suspended in 0.5 mL of PBS. Control medium and filtered PBS were used as controls in this technique. The NTA measurement conditions were: temperature=21.0+/−0.5° C.; viscosity=0.99+/−0.01 cP; frames per second=25; measurement time=30 s. The detection threshold was similar in all samples. […]

MDA-MB-231 cells [5] = assay: as above; assay type: cell-based; details: MDA-MB-231 cells treated for 48 hr; control media 4.7×10^9 particles/ml
Method: as §1, §5

K562 cells [6] = assay: Western blot analysis of EV protein content; assay type: cell-based; details: 48 hours treatment
Method: as §1
(§6) 1.6. Western blot analysis. EVs were isolated from culture supernatants as described above. Protein concentrations were determined by measuring absorbance at 280 nm (Nanodrop 2000). Protein samples were denatured in SDS-PAGE sample buffer by heating at 95° C. for 15 min. Criterion TGX Precast Gels (4-20% Bio-Rad, Richmond, CA) were used to separate the proteins and blotted as previously described (Huang MB. et al 2004). Blots were incubated with the primary antibodies, anti-CD63 and anti-Alix, followed by goat or rabbit anti-Ig secondary antibodies. Specific bands were detected using ECL chemiluminescent substrate (Santa Cruz Biotechnology, Santa Cruz, CA) and visualized on the ImageQuant LAS 4000 imaging system (GE Healthcare, Piscataway, NJ 08854).
(§7) Western blot analysis was used to examine the effects of the SMRwt peptides, PEG-SMRwt-Clu peptide and SMRwt-CPP peptide, and the mortalin inhibitors MKT-077, Omeprazole, and DMA on EV protein content in MCF-7, MDA-MB-231 and K562 cells. Negative control treatments included the PEG-SMRmut-Clu peptide, […] (SEQ ID NO: 49) and the SMRmut-CPP peptide, […] (SEQ ID NO: 50). EVs were isolated from all treated and untreated cell lines screened. Western blot analyses were carried out to evaluate the expression levels of the exosomal proteins, Alix, mortalin, and vimentin in MCF-7 cells (FIG. 7, Panel A, left sub-panel), MDA-MB-231 cells (FIG. 7, Panel A, middle sub-panel), and K562 cells (FIG. 7, Panel A, right sub-panel).

MCF-7 cells [7] = assay: Western blot analysis of EV protein content; assay type: cell-based; details: 48 hours treatment
Method: as §1, §6, §7

MDA-MB-231 cells [8] = assay: Western blot analysis of EV protein content; assay type: cell-based; details: 48 hours treatment
Method: as §1, §6, §7

K562 cells [9] = assay: Complement-mediated cytotoxicity (anti-CXCR4 antibody plus NHS or NIS, trypan blue exclusion); assay type: cell-based; details: 280 nM PEG-SMRwt-Clu or 560 nM SMRwt-CPP
Method: as §3, §4

MCF-7 cells [10] = assay: as above; assay type: cell-based; details: 280 nM PEG-SMRwt-Clu or 560 nM SMRwt-CPP
Method: as §3, §4

MDA-MB-231 cells [11] = assay: as above; assay type: cell-based; details: 280 nM PEG-SMRwt-Clu or 560 nM SMRwt-CPP
Method: as §3, §4

[12] = test system: MCF-7, MDA-MB-231 and K562 cells; assay: Exosome/EV release, overall statements across cell lines (AchE, NanoSight, Western blot); assay type: cell-based
Method: Acetylcholinesterase (AchE) assays, NanoSight analysis and Western blot analysis were performed to characterize EVs released from MCF-7 and MDA-MB-231 cells treated for 48 hr with the various peptides.
To further examine the underlying mechanism for blocking exosome release, a study was extended to examine the effects of the SMRwt peptides, PEG-SMRwt-Clu peptide and SMRwt-CPP peptide, and the mortalin inhibitors MKT-077, Omeprazole, and DMA on exosome release. In particular, acetylcholinesterase (AchE) assays, NanoSight analysis and Western blot analysis were performed to characterize EVs released from MCF-7, MDA-MB-231 and K562 cells. Panels A, B and C depict the relative numbers of EVs released as a function of time as measured by an acetylcholinesterase (AchE) assay in MCF-7 cells (FIG. 6, Panel A); MDA-MB-231 cells (FIG. 6, Panel B); and K562 cells (FIG. 6, Panel C).

[13] = test system: MCF-7, MDA-MB-231 and K562 cells; details: previously shown (Huang et al., Oncotarget (2017)); cited from earlier work
[14] = then anti-CXCR4 antibody and NHS

AGFPVAAAGFPVGRKKRRQRRRPPQ (SEQ ID NO: 50) (Synthetic SMRmut-CPP)
AchE concentrations on day 3 (MCF-7 cells [1]; MCF-7 cells): 66.05 mU/mL
AchE concentrations, initial increase (MCF-7 cells [1]; MCF-7 cells): 150.06 mU/mL
AChE on day 1 (initial increase) (MDA-MB-231 cells [2]; MDA-MB-231 cells): 141.47 mU/mL

NXNAGFPVAAAGFPVHPLSKHPYWSQP (SEQ ID NO: 49) [PEG-SMRmut-Clu]
AchE concentrations on day 3 (MCF-7 cells [1]; MCF-7 cells): 69.0 mU/mL
AchE concentrations, initial increase (MCF-7 cells [1]; MCF-7 cells): 151.5 mU/mL
AChE on day 1 (initial increase) (MDA-MB-231 cells [2]; MDA-MB-231 cells): 146.79 mU/mL

VGFPVAAVGFPVGRKKRRQRRRPPQ [SMRwt-CPP]
complement-mediated cytotoxicity / cell death in the presence of NHS [3]: induce complement-mediated cytotoxicity

VGFPVAAVGFPVHPLSKHPYWSQP (SEQ ID NO: 47) [PEG-SMRwt-Clu]
AchE activity in EVs (MCF-7 cells [1]; MCF-7 cells treated for 48 hr, control EVs 113.49 mU/mL): 41.95 mU/mL
average AChE concentrations throughout days 1 to day 5 (MCF-7 cells [1]; MCF-7 cells, five-day treatment at 37° C.): 31 mU/mL
AchE activity in EVs (MDA-MB-231 cells [2]; MDA-MB-231 cells treated for 48 hr, control EVs 118.48 mU/mL): 66.77 mU/mL
average AChE concentration levels throughout day 1 to 5 (MDA-MB-231 cells [2]; MDA-MB-231 cells, five-day treatment at 37° C.): 42 mU/mL
number of particles (NTA) (MCF-7 cells [4]): 3.28×10^8 particles/mL
number of particles (NTA) (MDA-MB-231 cells [5]): 6.8×10^8 particles/mL
Alix expression in EVs (K562 cells [6]): significantly decreased
Mortalin expression in EVs (K562 cells [6]): significantly decreased
Mortalin expression in EVs (MCF-7 cells [7]): significantly decreased
Alix expression in EVs (MCF-7 cells [7]; relative to negative controls): significantly decreased
Vimentin expression in EVs (MCF-7 cells [7]; relative to negative controls): significantly decreased
Alix expression in EVs (MDA-MB-231 cells [8]): significantly decreased
Mortalin expression in EVs (MDA-MB-231 cells [8]): significantly decreased
Vimentin expression in EVs (MDA-MB-231 cells [8]): significantly decreased
cell death under complement-negative conditions (K562 cells [9]; 60 min): 4.3%
cell death under complement-positive conditions (K562 cells [9]; [14]): 55%
cell death under complement-negative conditions (MCF-7 cells [10]; 60 min): 2.1%
cell death under complement-positive conditions (MCF-7 cells [10]; [14]): 26%
cell death under complement-negative conditions (MDA-MB-231 cells [11]; 60 min): 3.6%
cell death under complement-positive conditions (MDA-MB-231 cells [11]; [14]): 76%
exosome/EV release (number of EVs released) ([12]; MCF-7, MDA-MB-231 and K562 cells, five days at 37° C., AchE assay): reduced the number of EVs released; also recorded: blocked exosome release
exosome release ([12]; MCF-7 and MDA-MB-231 cells treated for 48 hr): blocks exosome release
complement-mediated cytotoxicity / cell death in the presence of NHS [3]: induce complement-mediated cytotoxicity
exosome release [13]: block exosome release
